Reference: US6908742B2, “Methods and kits for the detection of endotoxin” (priority 1996, dated 2005)

Tests used:
[1] = biological target: T1, A1 adenosine receptors in membranes from feline PAECs (Felis catus, UniProt A0ABI7XJE9); test: Competition experiments for [3H] DPCPX in feline PAEC membranes; assay type: binding; details: cultured feline PAEC membranes
T1 sequence (A0ABI7XJE9 1-326): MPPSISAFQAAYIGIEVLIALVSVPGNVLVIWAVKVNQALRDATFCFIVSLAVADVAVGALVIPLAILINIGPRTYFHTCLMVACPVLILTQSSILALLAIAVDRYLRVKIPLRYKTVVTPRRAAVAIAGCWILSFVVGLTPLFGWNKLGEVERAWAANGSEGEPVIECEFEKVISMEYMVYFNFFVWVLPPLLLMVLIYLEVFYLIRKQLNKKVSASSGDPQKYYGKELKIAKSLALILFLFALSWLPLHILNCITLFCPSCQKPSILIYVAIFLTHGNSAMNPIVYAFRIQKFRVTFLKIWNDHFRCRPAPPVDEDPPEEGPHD
Method: (§1) Feline PAECs were grown to confluency in […] culture plates. The confluent cells were washed twice with KSP buffer (10 mM KH2P04, 50 mM sucrose). The cells were scraped and suspended in KSP buffer at a concentration of 1×10^6 cells/ml in two conical centrifuge tubes. The tubes were centrifuged at 1000 g×2 minutes and the buffer discarded. The cells from one tube were then suspended in deoxygenated buffer (bubbled with N2 gas for 10 minutes) and bubbled with N2 gas for 30 seconds to insure hypoxic conditions. These cells were then incubated for 2 hours in this hypoxic buffer. Cells from the other tube were suspended in normal KSP buffer and incubated at 37° C. for 2 hours. At the end of incubation, cells were homogenized immediately for membrane preparation.
For membrane preparation, the cells were homogenized by sonication and centrifuged at 1000× g for 10 minutes. The supernatant was centrifuged again at 30,000× g for 30 minutes. […]
Radioligand binding data are analyzed with the use of Graph Pad Prism by nonlinear regression analysis equipped with a statistical package. Data are expressed as mean±SEM. Hill plots and Schild plots are determined for each species of LPS in competition experiments and are used as standard curves for the determinations of the concentration of endotoxin in samples with unknown concentrations of endotoxin.

[2] = biological target: T2, A1 adenosine receptor (Homo sapiens, UniProt P30542); details: in tissues; cited from earlier work
T2 construct: host or cells: tissues (not specified)
T2 sequence (P30542 1-326): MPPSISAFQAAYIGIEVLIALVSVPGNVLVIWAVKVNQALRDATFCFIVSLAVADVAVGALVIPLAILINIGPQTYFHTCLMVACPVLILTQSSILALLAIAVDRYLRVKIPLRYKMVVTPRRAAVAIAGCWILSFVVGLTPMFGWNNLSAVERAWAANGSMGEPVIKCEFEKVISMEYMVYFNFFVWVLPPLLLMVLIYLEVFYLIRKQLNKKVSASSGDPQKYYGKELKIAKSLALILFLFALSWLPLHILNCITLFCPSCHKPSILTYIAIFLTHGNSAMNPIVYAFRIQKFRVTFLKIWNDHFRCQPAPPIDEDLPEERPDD

[3] = biological target: T3, A1 adenosine receptors in sheep brain membranes (Ovis aries, UniProt A0ACI6R3B7); test: Saturation experiments with [3H] DPCPX or [3H] CCPA in sheep brain membranes; assay type: binding
T3 sequence (A0ACI6R3B7 1-326): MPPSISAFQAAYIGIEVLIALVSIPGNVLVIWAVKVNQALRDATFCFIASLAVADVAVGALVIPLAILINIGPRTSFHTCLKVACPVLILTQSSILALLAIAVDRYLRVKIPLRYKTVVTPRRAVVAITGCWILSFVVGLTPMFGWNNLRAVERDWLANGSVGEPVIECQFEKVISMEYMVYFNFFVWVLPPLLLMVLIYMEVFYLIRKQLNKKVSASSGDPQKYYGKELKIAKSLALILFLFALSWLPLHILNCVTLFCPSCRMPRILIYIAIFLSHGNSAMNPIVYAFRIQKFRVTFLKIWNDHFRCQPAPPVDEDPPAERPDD
Method: (§2) Frozen sheep brain (Pel Freeze, Rodgers, Ark.) or hamster brain (Harlan Bioproducts, Indianapolis, Ind.) was thawed and homogenized in 10 volumes of cold (4° C.), 0.32 M sucrose. The homogenate was centrifuged at 1,000× g for 10 minutes to remove the nuclear fraction. The supernatant was centrifuged at 30,000× g for 30 minutes. The resulting pellet was resuspended in 10 ml water and left on ice for 30 minutes to obtain synaptosomal membranes. The suspension was then centrifuged at 48,000× g for 10 minutes and the membranes resuspended in 50 mM Tris-HCl (pH 7.4) at a concentration of 8 mg protein/ml, frozen in liquid nitrogen, and stored at −20° C. until binding assay.
(§3) Binding of [^3H] DPCPX or [^3H] CCPA to membranes was carried out in an assay volume of 500 μl Tris-HCl, pH 7.4, MgCl2 (10 mM) (for membranes from feline PAECs only) containing [^3H] DPCPX or [^3H] CCPA (0.01 to 4 nM). Nonspecific binding of [^3H] DPCPX or [^3H] CCPA was determined in the presence of R-PIA (100 μM) or theophylline (1 mM), respectively. To remove endogenous adenosine, adenosine deaminase was present in all binding assays at a concentration of 0.2 U/ml. Incubations were performed for 2 hours at room temperature for sheep and hamster brain membranes and 4° C. for feline PAEC membranes. Incubations were terminated by rapid removal of the incubation buffer by filtration through Whatman GF/B filters (Whatman Inc., Clifton, N.J.). The membrane bound radioactivity was measured by scintillation counting of the filter paper. To determine Kd, Bmax, and nonspecific binding in sheep and hamster brain and feline PAEC membranes, experiments are performed in duplicate.

[4] = biological target: T4, A1 adenosine receptors in hamster brain membranes (Mesocricetus auratus, UniProt A0A1U8BVR4); test: Saturation experiments with [3H] DPCPX or [3H] CCPA in hamster brain membranes; assay type: binding
T4 sequence (A0A1U8BVR4 1-326): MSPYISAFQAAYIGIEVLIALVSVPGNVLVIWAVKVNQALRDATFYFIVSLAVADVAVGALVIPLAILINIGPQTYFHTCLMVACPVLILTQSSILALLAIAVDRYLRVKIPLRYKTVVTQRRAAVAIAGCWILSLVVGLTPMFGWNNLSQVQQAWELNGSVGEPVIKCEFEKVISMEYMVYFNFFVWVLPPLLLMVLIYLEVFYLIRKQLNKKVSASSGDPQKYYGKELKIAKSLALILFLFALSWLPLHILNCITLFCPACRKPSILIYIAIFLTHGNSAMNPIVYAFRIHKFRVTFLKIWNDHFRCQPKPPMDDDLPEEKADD
Method: as §2, §3

[5] = biological target: T1, A1 adenosine receptors in membranes from feline PAECs; test: Saturation experiments with [3H] DPCPX in feline PAEC membranes; assay type: binding
Method: as §1
For membrane preparation, the cells were homogenized by sonication and centrifuged at 1000× g for 10 minutes. The supernatant was centrifuged again at 30,000× g for 30 minutes. The membrane fraction was reconstituted with Tris buffer for radioligand binding studies.
as §3

Nc1nc(Nc2ccccc2)nc2c1ncn2[C@@H]1O[C@H](CO)[C@@H](O)[C@H]1O [CV 1808, 2-phenylaminoadenosine]
displacement of bound [3H] DPCPX [1]: did not displace

CCCn1c(=O)c2[nH]c(C3CCCC3)nc2n(CCC)c1=O [DPCPX, 1,3-dipropyl-8-cyclopentylxanthine]
nonspecific binding [2]: less than 1%

OC[C@H]1O[C@@H](n2cnc3c(NC4CCCC4)nc(Cl)nc32)[C@H](O)[C@@H]1O [[^3H] CCPA, 2-chloro-N^6-cyclopentyladenosine]
density of high affinity A1 adenosine receptors ([3]; sheep brain, determined using [3H] CCPA): 1920 ± 250 fmol/mg
density of high affinity A1 adenosine receptors ([4]; hamster brain, determined using [3H] CCPA): 1630 ± 60 fmol/mg

CCCn1c(=O)c2[nH]c(C3CCCC3)nc2n(CCC)c1=O [[^3H]-DPCPX, [^3H]-1,3-dipropyl-8-cyclopentyladenosine xanthine]
Kd ([3]; sheep brain membranes): 0.37 nM
Bmax ([3]; sheep brain membranes, [3H]-DPCPX saturation): 2251 fmoles/mg protein
Kd ([4]; hamster brain membranes): 0.32 nM
Bmax ([4]; hamster brain membranes, [3H]-DPCPX saturation): 3733 fmoles/mg protein
Bmax ([5]; hypoxia): 1458 fmoles/mg protein
Kd ([5]; hypoxia): 0.26 nM
Bmax ([5]; normoxia): 1064 fmoles/mg protein
Kd ([5]; normoxia): 0.33 nM
